How the values were obtained:
VEGF and ANGPTL4 mRNA = assay: mRNA expression in hypoxic MIO-M1 cells; type: cell-based, human; details: hypoxia, 10 μM
Procedure: It has previously been reported that the cells in the inner nuclear layer of the retina that express VEGF in response to hypoxia/ischemia are Müller glial cells (X. Xin et al., Proc Natl Acad Sci USA 110, E3425-3434 (2013)). […] The effects of 32-134D on HIF-1α accumulation persisted up to 16 hours after treatment of cultured cells (FIG. 27B).
Reverse transcription and quantitative real-time PCR: Total RNA was isolated from cultured cells or retinas with PureLink™ RNA Mini Kit (Invitrogen #12183025), and cDNA was prepared with MuLV Reverse Transcriptase (Applied Biosystems). Quantitative real-time PCR was performed with Power SYBR Green PCR Master Mix (Applied Biosystems) and MyiQ Real-Time PCR Detection System (Bio-Rad). Normalization was done using cyclophilin A for mouse tissue and human cell lines.

[1] = test system: HIF-regulated vasoactive mediators; assay: mRNA expression in hypoxic D120 hiPSC-derived retinal organoids; type: cell-based, human; details: 1% O2, 12 hours
Procedure: To assess the therapeutic potential of 32-134D for diabetic patients, human induced pluripotent stem cell (hiPSC)-derived 3-dimensional (3D) retinal organoids were treated with 32-134D. It has been previously reported that hiPSC-derived 3D retinal organoids cultured under hypoxic conditions (1% O2) behave similar to ischemic human retinal tissue with increased accumulation of both HIF-1α and HIF-2α (J. Zhang et al., J Clin Invest 131 (2021)). By 120 days of differentiation (D120), the inner and outer retinal layers are clearly defined (FIGS. 32A and 32B) and contain the precursors of the major retinal cell types, including outer retina photoreceptors (expressing recoverin), few newly differentiating bipolar cell precursors (lacking expression of recoverin and Pax6), amacrine cells (expressing high levels of Pax6), as well as Müller cells (expressing CRALBP; FIGS. 32C and 32D). […]
Reverse transcription and quantitative real-time PCR: Total RNA was isolated from cultured cells or retinas with PureLink™ RNA Mini Kit (Invitrogen #12183025), and cDNA was prepared with MuLV Reverse Transcriptase (Applied Biosystems). Quantitative real-time PCR was performed with Power SYBR Green PCR Master Mix (Applied Biosystems) and MyiQ Real-Time PCR Detection System (Bio-Rad). […]

C57BL/6 mice = assay: Retinal safety after intraocular injection (ERG, histology, RGC count); type: in vivo, mouse
Procedure: To reduce the risk of systemic side effects while optimizing the delivery of drugs to retinal tissue, therapies for ocular vascular disease are often administered by intravitreal injection. Therefore, it was assessed whether […] causes retinal toxicity following intraocular administration. To this end, ERGs up to 5 weeks were examined following a single intraocular injection of increasing doses (70, 140, 210, and 350 ng) of 32-134D.
To assess whether a higher dose of 32-134D could facilitate less frequent administration, the safety of higher doses of intraocular administration of 32-134D was assessed. To this end, ERGs up to 2 weeks following a single intraocular injection of high doses (500 and 1,000 ng) of 32-134D were examined.
Intraocular injections: Intravitreal injections were performed with a PLI-100A Pico-liter Microinjector (Warner Instruments, Harvard Bioscience) using pulled-glass micropipettes. Each micropipette was calibrated to deliver a 1 μl volume on depression of a foot switch. The mice were anesthetized with a ketamine (100 mg/kg) and xylazine (5 mg/kg) mixture, and under a dissecting microscope, the sharpened tip of the micropipette was passed through the sclera just posterior to the limbus into the vitreous cavity and the foot switch was depressed, which caused fluid to penetrate into the vitreous space. Test compound was injected into the vitreous cavity in OIR and STZ mice for vascular permeability test, retinal vasculature and lysates for WB and qPCR analysis.
Flash scotopic ERGs: All procedures were performed under dim red light. Mice were dark adapted overnight, anesthetized with ketamine (50 mg/kg) and xylazine (5 mg/kg) and pupils were dilated with a topical drop of tropicamide (1%). Scotopic ERG responses were measured using the Celeris ERG stimulator (Diagnosys, Lowell, MA) at flash intensities of 0.025, 0.25, 2.5, 7.96, and 79.06 cd/s/m2. ERGs were measured simultaneously from both eyes with a ground electrode placed into the forehead between the eyes and a reference electrode into the hip.

Structure (SMILES): Brc1ccc2c(-c3csc(-c4c[nH]c5c(Br)cccc45)n3)c[nH]c2c1 [Compound 32-134D, 4-(6-bromo-1H-indol-3-yl)-2-(7-bromo-1H-indol-3-yl)thiazole]
- mRNA expression of VEGF and ANGPTL4 (VEGF and ANGPTL4 mRNA): potent inhibition
- expression of HIF-regulated vasoactive mediators (Vegf, Angpt14 mRNA) [1]: effectively prevented
- retinal histology including GCL (C57BL/6 mice; 35 days after intraocular injection of up to 350 ng): normal histology
- number of RGCs on retinal flat mounts (C57BL/6 mice; highest doses tested (210 or 350 ng), 35 days): unaffected
- ERG evidence of retina toxicity (C57BL/6 mice; single intraocular injection 70, 140, 210, 350 ng, up to 5 weeks): no ERG evidence of retina toxicity
- ERG evidence of retina toxicity (C57BL/6 mice; single intraocular injection 500 and 1,000 ng, up to 2 weeks): no ERG evidence of retina toxicity
